This is an account of results in paper PMC10215143, “D- and N-Methyl Amino Acids for Modulating the Therapeutic Properties of Antimicrobial Peptides and Lipopeptides” (Antibiotics, 2023).

Series [1] can be described thus: Critical micelle concentration by conductimetry in Milli-Q water. Type of series: physicochemical. The settings on record: 25 °C. The method, then: On the other hand, acylation confers that the peptide has capacity to self-assemble into nanostructures, resulting in a surfactant-like structure, which may affect the extent of peptide insertion and disruption of bacterial membrane integrity. In this work, the CMC of the lipopeptides was determined by conductimetry in Milli-Q water. All the lipopeptides adopted a micellar assembly with CMC values ranging from 2.0 to 5.7 mM (Table 1). […] This effect appeared to be more important when substitution by an N-methyl amino acid was performed on amino acids located on the non-polar face of the amphipathic helix (CMC values of C10:0-A2(8-NMePhe) = 2.01 mM). For all the lipopeptides, the CMC values remained above the MIC values, which could indicate that these molecules interact with the cell membrane as monomers and, consequently, that this property would not be necessary for antimicrobial activity. This notion is in concordance with reports in the literature on short cationic lipopeptides.
A lipopeptide solution was prepared in Milli Q water, and the specific conductivity of each lipopeptide solution, in a concentration ranging from 0.06 to 18 mg/mL, was measured using a drop conductivity meter (HORIBA, Kyoto, Japan), at 25 °C. Conductivity values were plotted vs. lipopeptide concentration (mS × cm^−1 vs. mg/mL), and the CMC was graphically determined.

For a further series, the system named is Gram (−) bacteria. The settings on record: for MIC Average Bacteria Gram (−): average over Gram (−) strains; for TI Bacteria Gram (−), HC50/MIC average: first value of the cell, a single value holds for HC50 and IC50 (400 µM used). The protocol:
(§1) The MIC against bacterial strains was determined by the modified broth microtiter dilution method, following the procedures proposed by R.E.W. Hancock Laboratory for testing antimicrobial peptides. The target strains Escherichia coli ATCC 35218, Pseudomonas aeruginosa ATCC 27853, Enterococcus faecalis ATCC 29212, and Staphylococcus aureus ATCC 25923 belong to the American Type Culture Collection (ATCC). The Methicillin-Resistant Staphylococcus aureus BSF FBCB1313 strain (MRSA) was provided by the Clinical Bacteriology Section of FBCB-UNL. All strains were activated by culture for 24 h at 37 °C in Mueller-Hinton Broth (MHB) (Biokar Diagnostics, Cedex, France). Each inoculum was taken and adjusted to a cellular concentration of 5 × 10^5 colony-forming units (CFU)/mL in diluted MHB. All the peptides were dissolved in bovine serum albumin buffer with the addition of 0.01% acetic acid; 100 µL of each inoculum was added to 11 µL of peptide solution in serial 2-fold dilutions and were incubated for 18–24 h at 37 °C. The MIC was the lowest peptide concentration that inhibited visible growth of each bacterial strain. The test was conducted in triplicate.
(§2) The TI is defined as the relationship between the concentration that caused 50% of hemolysis (HC50) or a 50% reduction in HeLa cell viability and the MIC. Thus, higher TI values indicate greater antimicrobial specificity. […] The average MIC for each peptide against different microorganism groups was used to calculate the TI value.

Another series has as its system Gram (+) bacteria. The settings on record: for MIC Average Bacteria Gram (+): average over Gram (+) strains; for TI Bacteria Gram (+), HC50/MIC average: first value of the cell, a single value holds for HC50 and IC50 (400 µM used). The protocol: as §1, §2
For another series, the system named is S. aureus ATCC 25923. Type of series: cell-based, Staphylococcus aureus. The settings on record: ATCC 25923, 24 h. The protocol: (§3) The test was conducted in triplicate.
The test system of another series is E. faecalis ATCC 29212. Type of series: cell-based, Enterococcus faecalis. The settings on record: ATCC 29212, 24 h. The method, then: as §3
A further series has as its system Human erythrocytes. The series can be described thus: Hemolysis assay. Type of series: cell-based. The settings on record: human erythrocytes 0.4% (v/v), 37 °C, 60 min, 6.25 to 400 µM. The protocol: Hemolytic activity was determined using red blood cells and the hemoglobin released was measured at 405 nm. The percentage of hemolysis corresponding to the synthetic compounds is shown in Figure 1 while the HC50 values are provided in Table 3. […] Substitutions by N-methyl and D-amino acids reduced the hemolytic activity of the peptides and lipopeptides. […] For all the peptides and most of the lipopeptides, the HC50 values exceeded 400 μM. Indeed, the HC50 values were lower only for C10:0-A2(9-NMeLys) and C10:0-A2, which were around 300 and 200 μM, respectively.
Erythrocyte lysis was determined using the following previously optimized protocols. Human erythrocytes from a healthy voluntary donor were isolated by centrifugation (3000 rpm for 10 min) after washing three times with Physiological Solution (PS). Erythrocyte solutions were prepared at a concentration of 0.4% (v/v) in PS. Test tubes containing 200 µL of erythrocyte solution were incubated at 37 °C for 60 min with 200 µL of peptide solution at concentrations ranging from 6.25 to 400 µM. After centrifugation at 3000 rpm for 5 min, supernatant absorbance was measured at 405 nm. Lysis induced by 1% Triton X-100 was taken as a 100% reference value.

For another series, the system named is HeLa cells. The settings on record: 24 h. The protocol: We assessed the cytotoxicity of the compounds synthesized using HeLa cells.
The 3–4,5-dimethylthiazol-2,5-biphenyl tetrazolium bromide (MTT) cell viability assay was used to assess the cytotoxic activity of synthetic compounds against the human HeLa line. HeLa cells were seeded in 96-well plates at 1 × 10^5 cells/well, in which the peptide solution was added at different concentrations (3.125–400 μM) for 24 h of incubation. Next, MTT reagent (Sigma-Aldrich, St. Louis, MO, USA) was added, and the cells were incubated for 2 h. Then, 100 μL of dimethylsulfoxide (DMSO) was added to each well to dissolve formazan crystals, and the plates were read at 595 nm.

The subject of the next series is C. tropicalis DBFIQ 3. Type of series: cell-based, Candida tropicalis. The settings on record: DBFIQ 3, 24 h. The method, then:
(§4) Each inoculum was taken and the cellular concentration was adjusted to 2 × 10^3 CFU/mL in Sabouraud Dextrose Broth (SDB) (Biokar Diagnostics, Cedex, France). Next, 50 µL of these inocula was added to 50 µL of peptide solution in serial 2-fold dilutions. […] […] The test was conducted in triplicate.

In another series the test system is E. coli ATCC 35218. The series is classed as cell-based, Escherichia coli. The settings on record: ATCC 35218, 24 h. The method, then:
as §3

The test system of series [2] is S. aureus RM * SA1 (Methicillin-resistant Staphylococcus aureus). The settings on record: S. aureus RM * SA1 (MRSA).
Another series deals with P. aeruginosa ATCC 27853. Type of series: cell-based, Pseudomonas aeruginosa. The settings on record: ATCC 27853, 24 h. The protocol: as §3
For another series, the system named is C. albicans PEEC 2. Type of series: cell-based, Candida albicans. The settings on record: PEEC 2, 24 h. The protocol:
as §4

In another series the test system is Yeast. The settings on record: for MIC Average Yeast: 24 h; for TI Yeast, HC50/MIC average: first value of the cell, a single value holds for HC50 and IC50 (400 µM used). The method, then: Each inoculum was taken and the cellular concentration was adjusted to 2 × 10^3 CFU/mL in Sabouraud Dextrose Broth (SDB) (Biokar Diagnostics, Cedex, France). Next, 50 µL of these inocula was added to 50 µL of peptide solution in serial 2-fold dilutions. […] The MIC was considered the lowest peptide concentration that inhibited visible growth of each yeast strain. The test was conducted in triplicate.
as §2

Values after ≈ are worked out from the molar mass of the structure shown. Where a SMILES comes first, the peptide text is derived from it. [ ]: non-standard residue; d: D form. The star is where a group is joined. NMeF = CN[C@@H](Cc1ccccc1)C(=O)O; NMeK = CN[C@@H](CCCCN)C(=O)O; Decanoyl = CCCCCCCCCC(=O)*

In general, MIC refers to the smallest concentration in the dilution series that meets the test's criterion for growth inhibition. For orientation: IC50 means the point on the concentration scale where inhibition reaches its midpoint. Read a high IC50 as weaker potency in that assay. Turning to `CCCCCCCCCC(=O)N[C@H](C(=O)N[C@@H](CCCCN)C(=O)N[C@@H](CCC(N)=O)C(=O)N[C@H](C(=O)N[C@@H](CCCCN)C(=O)N(C)[C@@H](CCCCN)C(=O)N[C@@H](CC(C)C)C(=O)N[C@@H](Cc1ccccc1)C(=O)N[C@@H](CCCCN)C(=O)N[C@@H](CCCCN)C(N)=O)C(C)C)[C@@H](C)CC` [C10:0-A2(6-NMeLys), C10:0-IKQVK(NMe-K)LFKK-NH2] (Decanoyl-IKQVK[NMeK]LFKK-NH2), the CMC in [1] came to 3.63 mM. Also, the “MIC Average Bacteria Gram (−)” value with Gram (−) bacteria worked out at 1.1 µM (≈ 1.57 µg/mL). In the series on Gram (−) bacteria, the “TI Bacteria Gram (−), HC50/MIC average” value came out at 363.6. Besides, the “MIC Average Bacteria Gram (+)” value with Gram (+) bacteria is reported as 4.2 µM (≈ 5.99 µg/mL). Moreover, the “TI Bacteria Gram (+), HC50/MIC average” value in the series on Gram (+) bacteria turned out to be 95.2. The MIC in the series on S. aureus ATCC 25923 amounted to 1.4 µM (≈ 2 µg/mL); in the series on E. faecalis ATCC 29212, 5.6 µM (≈ 7.99 µg/mL); in the series with C. tropicalis DBFIQ 3, 89.7 µM (≈ 128 µg/mL); in the series with E. coli ATCC 35218, 1.4 µM (≈ 2 µg/mL); in series [2] it was 5.6 µM (≈ 7.99 µg/mL); with P. aeruginosa ATCC 27853, 0.7 µM (≈ 0.999 µg/mL). Besides, the MIC with C. albicans PEEC 2 was found to be 44.9 µM (≈ 64.1 µg/mL). Also, in the series with Human erythrocytes, the “HC50 ± SD” value is reported as above 400 µM. This molecule also gave an IC50 in the series with HeLa cells of 400 ± 29 µM. For the same molecule, the “MIC Average Yeast” value against Yeast is 67.3 µM (≈ 96 µg/mL). In the series with Yeast, the “TI Yeast, HC50/MIC average” value turned out to be 5.9.
`CCCCCCCCCC(=O)N[C@H](C(=O)N[C@@H](CCCCN)C(=O)N[C@@H](CCC(N)=O)C(=O)N[C@H](C(=O)N[C@@H](CCCCN)C(=O)N[C@@H](CCCCN)C(=O)N[C@@H](CC(C)C)C(=O)N(C)[C@@H](Cc1ccccc1)C(=O)N[C@@H](CCCCN)C(=O)N[C@@H](CCCCN)C(N)=O)C(C)C)[C@@H](C)CC` [C10:0-A2(8-NMePhe), C10:0-IKQVKKL(NMe-F)KK-NH2] (Decanoyl-IKQVKKL[NMeF]KK-NH2) gave a CMC in [1] of 2.01 mM. In addition, in the series on Gram (−) bacteria, the “MIC Average Bacteria Gram (−)” value was 8.4 µM (≈ 12 µg/mL). For the same molecule, the “TI Bacteria Gram (−), HC50/MIC average” value in the series with Gram (−) bacteria was determined as 47.6. Further, in the series with Gram (+) bacteria, the “MIC Average Bacteria Gram (+)” value was 6.5 µM (≈ 9.28 µg/mL). Besides, in the series on Gram (+) bacteria, the “TI Bacteria Gram (+), HC50/MIC average” value worked out at 61.5. Moreover, the minimum inhibitory concentration (MIC) with S. aureus ATCC 25923 was determined as 2.8 µM (≈ 4 µg/mL); in the series on E. faecalis ATCC 29212 it was 11.2 µM (≈ 16 µg/mL); against C. tropicalis DBFIQ 3 it was 179.5 µM (≈ 256 µg/mL); in the series on E. coli ATCC 35218, 11.2 µM (≈ 16 µg/mL); in series [2], 5.6 µM (≈ 7.99 µg/mL); in the series with P. aeruginosa ATCC 27853 it was 5.6 µM (≈ 7.99 µg/mL). In the series with C. albicans PEEC 2, this molecule yielded a minimal inhibitory concentration (MIC) of 179.5 µM (≈ 256 µg/mL). For the same molecule, in the series on Human erythrocytes, the “HC50 ± SD” value is reported as above 400 µM. In the series on HeLa cells, this molecule yielded an IC50 above 400 µM. Further, in the series on Yeast, the “MIC Average Yeast” value worked out at 179.5 µM (≈ 256 µg/mL). Also, in the series with Yeast, the “TI Yeast, HC50/MIC average” value came out at 2.2.
